IC50, Ki and inhibition data for 13 molecules are collected here from ChEMBL document CHEMBL1142718, “Novel indolylindazolylmaleimides as inhibitors of protein kinase C-beta: synthesis, biological activity, and cardiovascular safety” (J Med Chem, 2005).

Experiment [1] in a line: Inhibition of Calcium/calmodulin-dependent protein kinase type II in P19 cells. The class given is cell-based, Mus musculus.
The nature of experiment [2]: Inhibition of Casein kinase 1 in P19 cells. The class given is cell-based, Mus musculus.
In experiment [3] the target is Cyclin-dependent kinase 1 (Mus musculus, UniProt P11440). Description: Inhibition of Cyclin-dependent kinase 1 in P19 cells. The class given is cell-based.
Sequence of Cyclin-dependent kinase 1 (P11440 whole entry): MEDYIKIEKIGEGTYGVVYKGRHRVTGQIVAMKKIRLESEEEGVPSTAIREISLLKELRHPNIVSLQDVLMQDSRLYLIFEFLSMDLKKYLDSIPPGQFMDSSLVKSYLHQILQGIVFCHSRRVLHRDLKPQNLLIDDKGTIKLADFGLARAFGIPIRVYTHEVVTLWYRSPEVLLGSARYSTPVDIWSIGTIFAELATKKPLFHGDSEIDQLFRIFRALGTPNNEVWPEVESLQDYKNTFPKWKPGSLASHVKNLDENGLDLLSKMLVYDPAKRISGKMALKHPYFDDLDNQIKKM
The target in experiment [4] is Platelet-derived growth factor receptor (Mus musculus, UniProt P05622+P26618). In words: Inhibition of Platelet-derived growth factor receptor in P19 cells. The class given is cell-based.
The next experiment has as its target Casein kinase 2 (Mus musculus, UniProt Q60737+P67871+O54833+Q8CH19). Description: Inhibition of Casein kinase 2 of P19 cells. It counts as cell-based.
The nature of experiment [5]: Inhibition of Protein Kinase A in P19 cells. The class given is cell-based, Mus musculus.
The nature of experiment [6]: Inhibition of Vascular endothelial growth factor receptor in P19 cells. It counts as cell-based, Mus musculus.
Experiment [7] concerns the target Mitogen-activated protein kinase 1 (Mus musculus, UniProt P63085). It counts as cell-based, P19.
Description: Inhibition of Mitogen-activated protein kinase/extracellular signal-regulated kinase 2 in P19 cells
Experiment [8] deals with Protein kinase C alpha type (Homo sapiens, UniProt P17252). Description: Inhibition of human Protein kinase C alpha using [gamma-33P]-ATP.
For experiment [9], the target named is Protein kinase C gamma type (Homo sapiens, UniProt P05129). Description: Inhibition of human Protein kinase C gamma using [gamma-33P]-ATP.
Experiment [10] addresses Epidermal growth factor receptor (Mus musculus, UniProt Q01279). Description: Inhibition of Epidermal growth factor receptor in P19 cells. It counts as cell-based.
Experiment [11] deals with T1, Protein kinase C beta type (Homo sapiens, UniProt P05771). In words: Inhibition of human Protein kinase C beta 1 using [gamma-33P]-ATP.
T1 sequence (P05771 whole entry): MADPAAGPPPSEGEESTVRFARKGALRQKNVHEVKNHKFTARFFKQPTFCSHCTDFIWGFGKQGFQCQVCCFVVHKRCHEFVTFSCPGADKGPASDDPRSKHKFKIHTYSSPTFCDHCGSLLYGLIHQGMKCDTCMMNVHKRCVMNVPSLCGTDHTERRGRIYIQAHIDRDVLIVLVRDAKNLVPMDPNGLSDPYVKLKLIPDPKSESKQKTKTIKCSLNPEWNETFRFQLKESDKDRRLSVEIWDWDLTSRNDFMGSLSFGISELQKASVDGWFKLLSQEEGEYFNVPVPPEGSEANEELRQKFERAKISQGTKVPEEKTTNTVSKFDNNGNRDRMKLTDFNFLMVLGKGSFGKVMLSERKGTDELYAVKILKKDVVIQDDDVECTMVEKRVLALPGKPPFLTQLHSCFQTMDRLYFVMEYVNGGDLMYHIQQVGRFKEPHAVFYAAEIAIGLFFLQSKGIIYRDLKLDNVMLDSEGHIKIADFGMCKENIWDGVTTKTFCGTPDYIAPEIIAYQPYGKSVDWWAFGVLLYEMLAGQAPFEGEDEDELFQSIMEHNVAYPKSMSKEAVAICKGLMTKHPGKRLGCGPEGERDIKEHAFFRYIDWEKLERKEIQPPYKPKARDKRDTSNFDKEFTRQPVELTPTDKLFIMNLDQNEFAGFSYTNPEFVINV
A short description of experiment [12]: Inhibition of Protein kinase C epsilon.
For experiment [13], the target named is Protein kinase C delta type (Homo sapiens, UniProt Q05655). In words: Inhibition of Protein kinase C delta.
Sequence of Protein kinase C delta type (Q05655 whole entry): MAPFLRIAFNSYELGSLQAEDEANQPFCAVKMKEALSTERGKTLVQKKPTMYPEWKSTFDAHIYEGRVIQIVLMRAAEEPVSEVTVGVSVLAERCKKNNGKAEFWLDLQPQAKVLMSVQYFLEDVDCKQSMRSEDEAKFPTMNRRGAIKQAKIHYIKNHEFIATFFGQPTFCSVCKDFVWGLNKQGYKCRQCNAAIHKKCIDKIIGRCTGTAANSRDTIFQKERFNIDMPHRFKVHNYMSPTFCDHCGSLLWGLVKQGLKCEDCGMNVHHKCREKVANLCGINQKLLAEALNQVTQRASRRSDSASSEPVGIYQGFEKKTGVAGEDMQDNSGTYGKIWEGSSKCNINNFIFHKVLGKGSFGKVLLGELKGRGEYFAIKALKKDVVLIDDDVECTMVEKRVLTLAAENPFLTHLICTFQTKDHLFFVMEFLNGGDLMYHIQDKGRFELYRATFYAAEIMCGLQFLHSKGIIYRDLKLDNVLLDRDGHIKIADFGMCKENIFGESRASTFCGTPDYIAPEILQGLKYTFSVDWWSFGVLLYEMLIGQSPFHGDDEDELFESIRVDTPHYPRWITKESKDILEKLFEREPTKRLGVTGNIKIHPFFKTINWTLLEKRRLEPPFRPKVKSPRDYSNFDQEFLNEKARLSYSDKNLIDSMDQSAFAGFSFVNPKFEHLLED
The target of the next experiment is Insulin receptor (Mus musculus, UniProt P15208). Description: Inhibition of Insulin receptor kinase in P19 cells. The class given is cell-based.
Sequence of Insulin receptor (P15208 28-748 limits assumed): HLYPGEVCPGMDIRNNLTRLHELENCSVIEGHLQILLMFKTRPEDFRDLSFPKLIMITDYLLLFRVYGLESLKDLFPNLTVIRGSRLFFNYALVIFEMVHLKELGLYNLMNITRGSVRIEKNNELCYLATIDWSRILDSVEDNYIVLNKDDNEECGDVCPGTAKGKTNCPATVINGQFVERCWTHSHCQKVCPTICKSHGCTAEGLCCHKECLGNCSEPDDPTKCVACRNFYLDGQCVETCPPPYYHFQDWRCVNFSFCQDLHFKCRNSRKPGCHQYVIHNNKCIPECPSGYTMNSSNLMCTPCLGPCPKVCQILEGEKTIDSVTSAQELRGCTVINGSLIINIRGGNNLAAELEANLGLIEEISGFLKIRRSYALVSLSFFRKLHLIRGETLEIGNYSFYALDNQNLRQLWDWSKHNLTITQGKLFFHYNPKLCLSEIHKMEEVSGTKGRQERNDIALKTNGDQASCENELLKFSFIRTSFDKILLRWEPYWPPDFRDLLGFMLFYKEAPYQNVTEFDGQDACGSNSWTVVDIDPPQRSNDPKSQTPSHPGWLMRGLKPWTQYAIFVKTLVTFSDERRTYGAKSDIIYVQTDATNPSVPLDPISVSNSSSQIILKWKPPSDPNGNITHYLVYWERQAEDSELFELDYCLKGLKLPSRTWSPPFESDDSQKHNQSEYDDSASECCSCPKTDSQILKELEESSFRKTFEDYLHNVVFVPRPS
Sequence of Insulin receptor (P15208 753-1372 limits assumed): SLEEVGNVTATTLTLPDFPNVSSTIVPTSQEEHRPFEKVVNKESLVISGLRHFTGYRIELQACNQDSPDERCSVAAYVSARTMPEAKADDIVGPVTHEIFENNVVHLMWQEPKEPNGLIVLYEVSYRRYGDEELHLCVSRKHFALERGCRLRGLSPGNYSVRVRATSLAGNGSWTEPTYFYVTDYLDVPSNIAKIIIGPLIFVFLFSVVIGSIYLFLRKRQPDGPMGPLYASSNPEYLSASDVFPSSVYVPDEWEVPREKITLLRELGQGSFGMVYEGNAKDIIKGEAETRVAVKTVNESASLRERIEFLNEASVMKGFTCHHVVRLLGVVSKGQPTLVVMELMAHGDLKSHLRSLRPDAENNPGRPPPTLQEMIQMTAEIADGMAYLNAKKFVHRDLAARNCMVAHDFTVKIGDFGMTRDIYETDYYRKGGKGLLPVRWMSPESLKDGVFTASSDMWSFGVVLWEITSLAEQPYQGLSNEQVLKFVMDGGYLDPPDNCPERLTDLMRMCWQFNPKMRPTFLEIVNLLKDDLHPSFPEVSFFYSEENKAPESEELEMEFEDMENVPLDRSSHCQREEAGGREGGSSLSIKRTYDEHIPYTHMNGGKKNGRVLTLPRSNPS
In experiment [14] the target is T2, Protein kinase C zeta type (Homo sapiens, UniProt Q05513).
T2 sequence (Q05513 whole entry): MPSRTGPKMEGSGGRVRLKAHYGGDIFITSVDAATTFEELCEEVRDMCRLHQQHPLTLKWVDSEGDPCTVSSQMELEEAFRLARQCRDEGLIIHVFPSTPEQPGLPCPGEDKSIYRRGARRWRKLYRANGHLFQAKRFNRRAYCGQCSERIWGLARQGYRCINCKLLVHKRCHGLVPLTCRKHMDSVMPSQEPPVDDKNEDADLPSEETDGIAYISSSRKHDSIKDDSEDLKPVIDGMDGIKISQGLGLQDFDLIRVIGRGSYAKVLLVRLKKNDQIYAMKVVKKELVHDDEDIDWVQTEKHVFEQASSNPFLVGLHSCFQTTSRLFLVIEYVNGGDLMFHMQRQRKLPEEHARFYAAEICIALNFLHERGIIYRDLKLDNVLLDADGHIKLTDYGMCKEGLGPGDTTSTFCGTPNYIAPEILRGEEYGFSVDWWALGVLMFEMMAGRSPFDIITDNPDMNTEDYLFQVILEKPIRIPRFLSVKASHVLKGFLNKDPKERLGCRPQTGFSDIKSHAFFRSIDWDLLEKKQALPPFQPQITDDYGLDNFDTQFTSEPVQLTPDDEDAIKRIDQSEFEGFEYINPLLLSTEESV
Description: Inhibition of Protein kinase C zeta.

Experiment [15] addresses T1, Protein kinase C beta type. In words: Inhibition of IL-8 release by HEK293 cells expressing PKC-beta2. It counts as functional, cell-based.
Experiment [16] addresses T1, Protein kinase C beta type. Description: Inhibition of human Protein kinase C beta 2 using [gamma-33P]-ATP.
Experiment [17] concerns the target Voltage-gated inwardly rectifying potassium channel KCNH2 (Homo sapiens, UniProt Q12809).
Description: Inhibition of [3H]astemizole binding to Potassium channel HERG
For experiment [18], the target named is T3, Protein kinase C zeta type (Homo sapiens) (UniProt Q05513).
T3 sequence (whole entry): T2 sequence (Q05513 whole entry)
In words: Inhibition of Protein kinase C zeta at 10 uM.

Sequence of Mitogen-activated protein kinase 1 (P63085 whole entry): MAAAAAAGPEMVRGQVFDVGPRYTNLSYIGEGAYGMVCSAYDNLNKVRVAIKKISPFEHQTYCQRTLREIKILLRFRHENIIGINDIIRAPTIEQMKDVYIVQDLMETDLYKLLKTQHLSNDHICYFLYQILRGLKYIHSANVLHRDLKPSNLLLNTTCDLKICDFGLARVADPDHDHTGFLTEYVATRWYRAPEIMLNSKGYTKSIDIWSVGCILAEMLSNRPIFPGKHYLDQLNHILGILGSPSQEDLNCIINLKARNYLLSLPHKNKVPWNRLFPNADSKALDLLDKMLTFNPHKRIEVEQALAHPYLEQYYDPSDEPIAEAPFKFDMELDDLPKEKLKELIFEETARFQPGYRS
Sequence of Epidermal growth factor receptor (Q01279 whole entry): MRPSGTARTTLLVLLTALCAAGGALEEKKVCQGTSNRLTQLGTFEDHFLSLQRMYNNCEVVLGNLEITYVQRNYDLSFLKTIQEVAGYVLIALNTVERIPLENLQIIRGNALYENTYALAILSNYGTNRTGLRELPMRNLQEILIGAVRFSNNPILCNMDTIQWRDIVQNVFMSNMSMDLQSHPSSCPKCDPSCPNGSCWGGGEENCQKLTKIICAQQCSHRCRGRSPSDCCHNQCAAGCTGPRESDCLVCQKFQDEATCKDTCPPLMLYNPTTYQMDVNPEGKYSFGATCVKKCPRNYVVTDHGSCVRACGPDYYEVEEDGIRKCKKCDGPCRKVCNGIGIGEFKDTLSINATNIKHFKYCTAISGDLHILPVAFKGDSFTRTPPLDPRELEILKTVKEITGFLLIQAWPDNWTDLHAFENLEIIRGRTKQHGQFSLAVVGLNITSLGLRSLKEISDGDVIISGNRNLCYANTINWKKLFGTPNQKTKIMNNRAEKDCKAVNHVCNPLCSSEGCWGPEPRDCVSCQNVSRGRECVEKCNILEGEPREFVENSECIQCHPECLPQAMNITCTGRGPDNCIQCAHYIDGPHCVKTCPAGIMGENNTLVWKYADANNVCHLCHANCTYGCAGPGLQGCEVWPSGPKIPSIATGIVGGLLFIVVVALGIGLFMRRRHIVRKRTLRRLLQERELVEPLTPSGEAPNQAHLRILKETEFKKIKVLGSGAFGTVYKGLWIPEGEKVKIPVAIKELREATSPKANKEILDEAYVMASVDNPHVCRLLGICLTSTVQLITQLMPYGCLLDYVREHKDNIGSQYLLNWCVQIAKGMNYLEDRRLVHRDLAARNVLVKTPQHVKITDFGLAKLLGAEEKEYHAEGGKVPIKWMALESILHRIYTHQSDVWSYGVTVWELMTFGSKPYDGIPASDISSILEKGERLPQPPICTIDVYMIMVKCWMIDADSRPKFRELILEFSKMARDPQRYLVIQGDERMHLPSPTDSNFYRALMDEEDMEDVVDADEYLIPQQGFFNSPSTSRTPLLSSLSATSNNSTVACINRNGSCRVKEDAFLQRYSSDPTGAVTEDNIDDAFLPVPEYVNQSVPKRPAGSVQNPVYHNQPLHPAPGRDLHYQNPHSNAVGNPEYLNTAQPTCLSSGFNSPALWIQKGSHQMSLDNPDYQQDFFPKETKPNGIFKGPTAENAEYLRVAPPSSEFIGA

Take `CN[C@@H]1C[C@H]2O[C@@](C)([C@@H]1OC)n1c3ccccc3c3c4c(c5c6ccccc6n2c5c31)C(=O)NC4` [STAUROSPORINE]: the IC50 – broadly, the point on the concentration scale where inhibition reaches its midpoint – was 6 nM in experiment [1]; 1400 nM in experiment [2]; 8 nM in experiment [3]; 2 nM in experiment [4]; above 10000 nM on Casein kinase 2; 4 nM in [5]. In addition, the IC50 in [6] amounted to 14 nM.
Consider `CN(C)CCCn1nc(C2=C(c3cn(-c4cccc5ccccc45)c4ccccc34)C(=O)NC2=O)c2ccccc21`, for which the IC50 in [7] was above 10000 nM; in experiment [8], 1200 nM; in experiment [9] it was 3400 nM; in [10] it was above 10000 nM; in [11] it was 87 nM; in experiment [1] it was above 10000 nM. The IC50 in experiment [12] is 4200 nM; in experiment [13], 2200 nM; in experiment [2], above 10000 nM; in experiment [3], 1900 nM; in experiment [4], above 10000 nM; on Casein kinase 2 it was above 10000 nM. Moreover, the IC50 in [5] was above 10000 nM; at Insulin receptor, above 10000 nM; in experiment [6] it was 6900 nM; in experiment [14], above 10000 nM; in [15], 600 nM.
As to `CN(C)CCCn1nc(C2=C(c3cn(-c4ccccc4)c4ccccc34)C(=O)NC2=O)c2ccccc21`, the IC50 in [8] amounted to 150 nM; in experiment [9], 370 nM; in experiment [11] it was 46 nM; in experiment [16], 13 nM.
For the molecule `O=C1NC(=O)C(c2nn(CCCN3CCOCC3)c3ccccc23)=C1c1cn(-c2ccc3ccccc3c2)c2ccccc12`, the IC50 is 190 nM in experiment [11] and 72 nM in [15]. In experiment [17], the inhibition constant (Ki) (usually the dissociation constant of the complex between target and ligand, obtained from inhibition or displacement) amounted to 850 nM.
For the molecule `CN(C)CCCn1nc(C2=C(c3cn(-c4ccc5ccccc5c4)c4ccccc34)C(=O)NC2=O)c2ccccc21`, the IC50 is above 10000 nM in experiment [7]; 110 nM in [9]; above 10000 nM in [10]; 33 nM in [11]; 6100 nM in experiment [1]; 330 nM in experiment [12]. In addition, the IC50 in experiment [13] was 490 nM; in [2], above 10000 nM; in experiment [3], 1300 nM; in [4] it was 5900 nM; on Casein kinase 2, above 10000 nM; in [5], above 10000 nM. Also, the IC50 against Insulin receptor is above 10000 nM; in [6] it was 1000 nM; in experiment [14] it was 6200 nM; in [15], 24 nM.
For the molecule `CN(C)CCCn1nc(C2=C(c3cn(-c4cnc5ccccc5c4)c4ccccc34)C(=O)NC2=O)c2ccccc21`, the IC50 is above 10000 nM in [7]; above 10000 nM in experiment [10]; 7 nM in [11]; above 10000 nM in experiment [1]; 140 nM in experiment [12]; 31 nM in [13]. In addition, the IC50 is above 10000 nM in experiment [2]; 1600 nM in experiment [3]; 5900 nM in experiment [4]; above 10000 nM at Casein kinase 2; above 10000 nM in experiment [5]; above 10000 nM on Insulin receptor. In addition, the half-inhibitory concentration (IC50) in experiment [6] was above 10000 nM; in experiment [14], 5700 nM; in experiment [15], 20 nM.
Regarding `CN1CCN(CCCn2nc(C3=C(c4cn(-c5ccc6ccccc6c5)c5ccccc45)C(=O)NC3=O)c3ccccc32)CC1`, the figures for the IC50 in [8], in experiment [11] and in experiment [16] were 320 nM, 62 nM and 92 nM, respectively. This molecule gave a Ki in [17] of 290 nM.
Take `O=C1NC(=O)C(c2nn(CCCN3CCCC3)c3ccccc23)=C1c1cn(-c2ccc3ccccc3c2)c2ccccc12`: the IC50 in experiment [11] came out at 120 nM; in [15] it was 170 nM. Moreover, affinity in [17] was put at a Ki of 11 nM.
In the case of `CN(C)CCCn1nc(C2=C(c3cn(-c4cncc5ccccc45)c4ccccc34)C(=O)NC2=O)c2ccccc21`, the IC50 in [9] came to 250 nM; in experiment [11], 92 nM; in experiment [15], 86 nM.
Regarding `O=C1NC(=O)C(c2cn(-c3cccnc3)c3ccccc23)=C1c1[nH]nc2ccccc12`, the IC50 was determined as 1000 nM in experiment [8], 460 nM in experiment [11] and 220 nM in experiment [16].
As to `CN(C)CCCn1nc(C2=C(c3cn(-c4cccnc4)c4ccccc34)C(=O)NC2=O)c2ccccc21`, the IC50 in [7] was above 10000 nM; in experiment [8], 120 nM; in experiment [9], 210 nM; in experiment [10], above 10000 nM; in experiment [11], 19 nM; in [1] it was 3800 nM. Also, the IC50 in experiment [12] is 330 nM; in experiment [13], 250 nM; in [2], above 10000 nM; in experiment [3], 310 nM; in experiment [4] it was 5200 nM; against Casein kinase 2, above 10000 nM. The IC50 was above 10000 nM in experiment [5]; above 10000 nM on Insulin receptor; 3700 nM in [6]; 4400 nM in [14]; 82 nM in experiment [15].
As to `CN(C)CCCn1nc(C2=C(c3cn(-c4cccs4)c4ccccc34)C(=O)NC2=O)c2ccccc21`, the IC50 in experiment [7] was above 10000 nM; in [8] it was 220 nM; in experiment [9] it was 280 nM; in experiment [10] it was above 10000 nM; in experiment [11] it was 15 nM; in [16], 10 nM. Also, the IC50 is 7000 nM in [1]; 140 nM in experiment [12]; 86 nM in experiment [13]; above 10000 nM in experiment [2]; 2200 nM in experiment [4]; above 10000 nM at Casein kinase 2. The IC50 in experiment [5] was 6200 nM; on Insulin receptor it was above 10000 nM; in [6], 5000 nM; in experiment [15], 75 nM. In experiment [18], the inhibition (commonly the share of the control response that was lost under treatment) worked out at 57%.
Turning to `CN(C)CCCn1nc(C2=C(c3cn(-c4csc5ccccc45)c4ccccc34)C(=O)NC2=O)c2ccccc21`, the IC50 in [7] was above 10000 nM; in experiment [10] it was above 10000 nM; in experiment [11] it was 86 nM; in experiment [1] it was 5600 nM; in experiment [12], 3100 nM; in experiment [13], 1500 nM. Moreover, the IC50 (in experiment [2]; in [3]; in experiment [4]; against Casein kinase 2; in experiment [5]; on Insulin receptor) was above 10000 nM throughout. The IC50 is above 10000 nM in [6], above 10000 nM in [14] and 630 nM in experiment [15].
